Our source for the Activity, IC50 and inhibition values is ChEMBL document CHEMBL5325395, “Design, synthesis and anti-ovarian cancer activities of thieno[2,3-d]pyrimidine based chimeric BRD4 inhibitor/nitric oxide-donator” (Eur J Med Chem, 2023).

Active and inactive are the calls of the source. The rule behind the calls is not given here.

Experiment [1] relates to SK-OV-3. The experiment is described as follows: Induction of autophagy in human SK-OV-3 cells assessed as reduction in cell viability at 1 mmol/L incubated for 24 hrs by CCK8 assay. Format: functional, cell-based.
Experiment [2] concerns the target Bromodomain-containing protein 4 (Homo sapiens, UniProt O60885). Description: Inhibition of BRD4 (unknown origin).
Experiment [3] deals with SK-OV-3. The experiment is described as follows: Antiproliferative activity against human SK-OV-3 cells assessed as reduction in cell viability incubated for 24 hrs by CCK8 assay. Format: functional, cell-based. To be noted: SK-OV-3, 24 h.
For experiment [4], the system named is OVCAR-3. Description: Antiproliferative activity against human OVCAR-3 cells assessed as reduction in cell viability incubated for 24 hrs by CCK8 assay. In kind it is functional, cell-based. To be noted: OVCAR-3, 24 h.
Experiment [5] concerns SW626. Description: Antiproliferative activity against human SW626 cells assessed as reduction in cell viability incubated for 24 hrs by CCK8 assay. Format: functional, cell-based. To be noted: SW626, 24 h.
Experiment [6] concerns ES-2. Description: Antiproliferative activity against human ES2 cells assessed as reduction in cell viability incubated for 24 hrs by CCK8 assay. Format: functional, cell-based. To be noted: ES-2, 24 h.
Experiment [7] relates to A2780. The experiment is described as follows: Antiproliferative activity against human A2780 cells assessed as reduction in cell viability incubated for 24 hrs by CCK8 assay. In kind it is functional, cell-based. To be noted: A2780, 24 h.
Experiment [8] in a line: Induction of NO release in phosphate buffer at 0.5 hrs by Griess reagent based spectrophotometer analysis. Format: functional.
Experiment [9] is described as follows: Induction of NO release in phosphate buffer at 1 hr by Griess reagent based spectrophotometer analysis. Format: functional.
Experiment [10] can be described thus: Induction of NO release in phosphate buffer at 2 hrs by Griess reagent based spectrophotometer analysis. Format: functional.
The nature of experiment [11]: Induction of NO release in phosphate buffer at 3 hrs by Griess reagent based spectrophotometer analysis. Format: functional.
Experiment [12] in a line: Induction of NO release in phosphate buffer at 4 hrs by Griess reagent based spectrophotometer analysis. In kind it is functional.
A short description of experiment [13]: Induction of NO release in phosphate buffer at 6 hrs by Griess reagent based spectrophotometer analysis. Format: functional.
Experiment [14] can be described thus: Induction of NO release in phosphate buffer at 24 hrs by Griess reagent based spectrophotometer analysis. Format: functional.
Experiment [15] has as its system SK-OV-3. Description: Induction of autophagy in human SK-OV-3 cells assessed as reduction in cell viability at 100 nmol/L incubated for 24 hrs by CCK8 assay. In kind it is functional, cell-based.
In experiment [16] the test system is Mus musculus. The experiment is described as follows: In vivo inhibition of BRD4 in BALB/c nude mouse xenografted with human SK-OV-3 cells assessed as reduction in c-Myc expression at 30 mg/kg, ip administered for 19 days by immunohistochemical analysis. In kind it is functional, organism-based. To be noted: time 19.0 day.

`Cn1cnc(N)c2ncnc1-2`: in experiment [1], the outcome was Active.

Turning to `Cc1cc(-c2nc3sc4c(c3c(=O)[nH]2)CCN(C)C4)cc(C)c1OCCCCCC(=O)OCc1c(-c2ccccc2)no[n+]1[O-]`, the 50% inhibitory concentration (IC50) came to 1.34 µM in [2]; 1.69 µM in [3]; 5.42 µM in [4]; 12.5 µM in experiment [5]; 12.8 µM in [6]; 9.73 µM in experiment [7]. The Activity in experiment [8] was determined as 0.063 µmol/L; in experiment [9], 0.068 µmol/L; in [10] it was 0.068 µmol/L; in [11], 0.056 µmol/L; in experiment [12] it was 0.066 µmol/L; in experiment [13], 0.117 µmol/L. The same molecule gave an Activity in [14] of 0.249 µmol/L.

Take `Cc1cc(-c2nc3sc4c(c3c(=O)[nH]2)CCN(C)C4)cc(C)c1OCCCCCCO[N+](=O)[O-]`: the IC50 in experiment [2] was 2.25 µM; in experiment [3], 3.87 µM; in [4], 17.9 µM; in [5], 17 µM; in experiment [6] it was 15.8 µM; in [7], 14.2 µM. For the same molecule, the Activity in experiment [8] came out at 0.029 µmol/L; in experiment [9], 0.038 µmol/L; in experiment [10], 0.03 µmol/L; in [11], 0.03 µmol/L; in [12], 0.036 µmol/L; in experiment [13] it was 0.037 µmol/L. In [14], this molecule registered an Activity of 0.166 µmol/L.

As to `COc1cc(OC)c2c(=O)[nH]c(-c3cc(C)c(OCCO)c(C)c3)nc2c1` [APABETALONE], the IC50 came to 7.05 µM in experiment [3]; 16.9 µM in experiment [4]; 8.45 µM in [5]; 8.01 µM in experiment [6]; 123 µM in experiment [7].

As for `Cc1cc(-c2nc3sc4c(c3c(=O)[nH]2)CCN(C)C4)cc(C)c1OCC(=O)OCc1no[n+]([O-])c1C`, the half-inhibitory concentration (IC50) in [2] was 1.21 µM; in [3], 1.62 µM; in experiment [4], 3.73 µM; in experiment [5] it was 9.85 µM; in experiment [6] it was 8.86 µM; in [7], 5.39 µM. Moreover, the Activity is 0.028 µmol/L in [8]; 0.04 µmol/L in experiment [9]; 0.025 µmol/L in experiment [10]; 0.033 µmol/L in [11]; 0.037 µmol/L in experiment [12]; 0.042 µmol/L in experiment [13]. The same molecule came in with an Activity in [14] of 0.169 µmol/L.

As to `Cc1cc(-c2nc3sc4c(c3c(=O)[nH]2)CCN(C)C4)cc(C)c1OCCCCCCOC(=O)c1no[n+]([O-])c1C`, the concentration for half-maximal inhibition (IC50) in experiment [2] is 2.36 µM; in experiment [3] it was 6.33 µM; in experiment [4], 7.04 µM; in experiment [5], 12.1 µM; in experiment [6], 4.69 µM; in experiment [7], 13.1 µM. Besides, the Activity in experiment [8] was determined as 0.022 µmol/L; in experiment [9] it was 0.027 µmol/L; in [10] it was 0.028 µmol/L; in experiment [11], 0.026 µmol/L; in experiment [12], 0.036 µmol/L; in experiment [13] it was 0.044 µmol/L. The molecule also came in with an Activity in experiment [14] of 0.154 µmol/L.

On to `CO/C1=C\C(C)=C\[C@@H](C)[C@@H](O)[C@@H](C)C/C(C)=C/C=C/[C@H](OC)[C@@H]([C@@H](C)[C@@H](O)[C@H](C)[C@@]2(O)C[C@@H](O)[C@H](C)[C@@H](C(C)C)O2)OC1=O`, for which the result in experiment [15] was inactive.

As to `Cc1cc(-c2nc3sc4c(c3c(=O)[nH]2)CCN(C)C4)cc(C)c1OCCCCO[N+](=O)[O-]`, the half-maximal inhibitory concentration (IC50) in [2] was determined as 1.89 µM; in experiment [3], 16.9 µM; in [4], 15.3 µM; in experiment [5], 16.6 µM; in experiment [6] it was 16.3 µM; in experiment [7], 16.9 µM. Also, the Activity in [8] is 0.03 µmol/L; in experiment [9], 0.05 µmol/L; in [10], 0.037 µmol/L; in experiment [11] it was 0.05 µmol/L; in experiment [12] it was 0.052 µmol/L; in experiment [13] it was 0.065 µmol/L. In experiment [14], the Activity amounted to 0.173 µmol/L.

Turning to `CCOC(=O)N1CCN(/[N+]([O-])=N/Oc2ccc([N+](=O)[O-])cc2[N+](=O)[O-])CC1`, the half-inhibitory concentration (IC50) is 18.5 µM in experiment [3]; more than 20 µM in experiment [4]; more than 20 µM in experiment [5]; more than 20 µM in experiment [6]; more than 20 µM in experiment [7].

As for `Cc1cc(-c2nc3sc4c(c3c(=O)[nH]2)CCN(C)C4)cc(C)c1OCCCC(=O)OCc1c(-c2ccccc2)no[n+]1[O-]`, the IC50 was 1.71 µM in experiment [2]; 3.18 µM in [3]; 13.8 µM in experiment [4]; 7.65 µM in experiment [5]; 19 µM in [6]; 7.31 µM in experiment [7]. Besides, the Activity in experiment [8] turned out to be 0.063 µmol/L; in experiment [9] it was 0.068 µmol/L; in experiment [10] it was 0.068 µmol/L; in [11], 0.056 µmol/L; in experiment [12], 0.066 µmol/L; in experiment [13] it was 0.117 µmol/L. In experiment [14], the Activity was determined as 0.249 µmol/L.

Consider `Cc1cc(-c2nc3sc4c(c3c(=O)[nH]2)CCN(C)C4)cc(C)c1OCCCC(=O)OCc1no[n+]([O-])c1C`, for which the IC50 came to 2.26 µM in experiment [2]; 7.93 µM in experiment [3]; 5.44 µM in experiment [4]; 13.4 µM in experiment [5]; 14.4 µM in [6]; 17.3 µM in experiment [7]. Moreover, the Activity was 0.023 µmol/L in [8]; 0.029 µmol/L in experiment [9]; 0.03 µmol/L in experiment [10]; 0.027 µmol/L in [11]; 0.035 µmol/L in experiment [12]; 0.036 µmol/L in [13]. The Activity in [14] turned out to be 0.149 µmol/L.

For the molecule `Cc1cc(-c2nc3sc4c(c3c(=O)[nH]2)CCN(C)C4)cc(C)c1O`, in experiment [16], the inhibition entry is “Active”.

Consider `Cc1cc(-c2nc3sc4c(c3c(=O)[nH]2)CCN(C)C4)cc(C)c1OCCCCCC(=O)OCc1no[n+]([O-])c1C`, for which the half-maximal inhibitory concentration (IC50) was 1.97 µM in experiment [2]; 12 µM in experiment [3]; 6.89 µM in [4]; 5.79 µM in [5]; 4.63 µM in [6]; 6.97 µM in experiment [7]. For the same molecule, the Activity in [8] was 0.02 µmol/L; in experiment [9], 0.03 µmol/L; in experiment [10], 0.033 µmol/L; in [11] it was 0.036 µmol/L; in experiment [12] it was 0.04 µmol/L; in experiment [13] it was 0.044 µmol/L. In experiment [14], this molecule came in with an Activity of 0.154 µmol/L.
